Assays:
[1] = target: androgen receptor of LNCaP prostate tumor cells (Homo sapiens, UniProt P10275, T878A); conditions: cited from earlier work
LNCaP cells = assay: Expression of pCMV-beta (lacZ) DNA in LNCaP cells, X-gal blue staining, number of blue cells per culture plate; format: cell-based, human; conditions: DHT-poly-L-lysine alone, no DNA; 48 hours incubation
Procedure: DHT poly-L-lysine as described in Example 1 was dialyzed against tris-EDTA buffer pH=7 (“HMW-D”) or purified by gel filtration column chromatography (“HMW-2=fraction #2 of the column, HMW-9=fraction 9 of the column). Protein concentrations of reaction products and column fractions were determined by the coomassie blue method. DHT-poly-L-lysine at amounts from 0.05 micrograms to 12.5 micrograms were mixed with pCMV-beta DNA expression construct containing the lacZ gene driven by the CMV immediate early promoter/enhancer in a pVC19 backbone, in amounts from 3 to 50 micrograms in 100 microliters of water at room temperature for one hour with vortex mixing every 15 minutes.
The reaction products of Example 2 were added to 1-3 ml of tissue culture media supplemented with 10% fetal bovine serum and filtered through 0.2 micron filter and added to subconfluent cultures of LNCaP cells growing on glass slides. Cells were incubated at 37 degrees C. 5% CO2 for 48 hours. Next, adherent cells were washed with phosphate buffered saline (PBS) and fixed with 2% paraformaldelyde in 0.1 M NaPO4 buffer pH=7.4 for 45 min. to one hour. Fixative was aspirated and cells rinsed with PBS and X-gal stain was applied. […] Each culture plate was scored for the number of cells which turned blue.

Chain of androgen receptor of LNCaP prostate tumor cells (P10275 whole entry T878A): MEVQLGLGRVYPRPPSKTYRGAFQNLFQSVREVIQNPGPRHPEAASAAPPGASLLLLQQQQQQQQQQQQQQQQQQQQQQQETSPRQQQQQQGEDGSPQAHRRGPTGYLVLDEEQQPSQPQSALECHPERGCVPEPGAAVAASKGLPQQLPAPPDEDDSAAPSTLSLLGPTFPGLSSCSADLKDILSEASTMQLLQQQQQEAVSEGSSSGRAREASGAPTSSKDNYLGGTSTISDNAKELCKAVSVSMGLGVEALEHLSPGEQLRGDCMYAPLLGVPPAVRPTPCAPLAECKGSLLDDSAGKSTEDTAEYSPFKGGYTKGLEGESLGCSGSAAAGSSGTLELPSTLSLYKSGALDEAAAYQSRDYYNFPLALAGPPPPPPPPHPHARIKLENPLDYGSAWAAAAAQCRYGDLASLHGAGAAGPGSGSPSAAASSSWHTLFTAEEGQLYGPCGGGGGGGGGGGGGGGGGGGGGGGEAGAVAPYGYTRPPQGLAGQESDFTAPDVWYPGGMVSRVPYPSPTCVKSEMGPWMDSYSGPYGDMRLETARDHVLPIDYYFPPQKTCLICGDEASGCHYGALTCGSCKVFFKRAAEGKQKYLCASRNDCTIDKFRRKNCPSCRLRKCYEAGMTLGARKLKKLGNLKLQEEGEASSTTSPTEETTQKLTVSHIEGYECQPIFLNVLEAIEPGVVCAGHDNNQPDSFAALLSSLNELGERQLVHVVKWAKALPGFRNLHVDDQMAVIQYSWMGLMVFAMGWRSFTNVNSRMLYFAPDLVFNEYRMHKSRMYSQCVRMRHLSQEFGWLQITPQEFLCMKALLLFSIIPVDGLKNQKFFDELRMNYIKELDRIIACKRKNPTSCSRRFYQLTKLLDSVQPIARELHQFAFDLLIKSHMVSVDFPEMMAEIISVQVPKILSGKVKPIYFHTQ

Row | Molecule | Relative binding affinities for the androgen receptor [1] | positive (blue-stained) cells (LNCaP cells)
1 | C[C@]1(O)CC[C@H]2[C@@H]3CCC4=CC(=O)CCC4=C3C=C[C@@]21C [R1881, 17β-hydroxy-17α-methyl-estra-4,9,11-trien-3-one] | 100 | –
2 | DHT-poly-L-lysine HBr | – | no positive cells

From US6468981B1, “Compositions and methods for targeting pharmaceutically active materials to cells containing androgen receptors” (Emory University, priority 1994, dated 2002)
